The values below are quoted from earlier work in patent US8410057B2, “Method of inducing T cell apoptosis by administering Altered Peptide Ligand” (Centro de Ingenieria Genetica y Biotecnologia, priority 2008, dated 2013).

The data set relates to monocytes and activated lamina propria T cells. Conditions: Crohn's disease patients; Van den Brande et al. 2003.

As for “infliximab: chimeric monoclonal antibody that binds to and neutralizes free and bound TNFα”, the induction of apoptosis result is “induce apoptosis of monocytes and activated lamina propria T cells”.

For Etanercept, the induction of apoptosis result is “does not induce cell apoptosis”.
